Results as given in ChEMBL document CHEMBL1201862, “PubChem BioAssay data set” (2004).
The source made the active and inactive calls.

Tests used:
Assay type in all cases: functional
[1] = viability of uninfected HEp-2 cells – cell-based, HTS, cytotoxicity control for RSV inhibitor project, dose response (AID 2410); conditions: human respiratory syncytial virus
[2] = molecular target: T1, Heat shock factor protein 1 (Mus musculus, UniProt P38532); assay: enhancement of HSF1-driven luciferase signal – cell-based, NIH3T3, luminescence, dose retest, confirmation (AID 435004);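 note: stress induced by proteasome inhibitor MG132 added 30 min after compound; luciferase reporter driven by HSF1 response element in NIH3T3 cells; actives raise luminescence as potentiators of the MG132 stress response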
T1 sequence (P38532 whole entry): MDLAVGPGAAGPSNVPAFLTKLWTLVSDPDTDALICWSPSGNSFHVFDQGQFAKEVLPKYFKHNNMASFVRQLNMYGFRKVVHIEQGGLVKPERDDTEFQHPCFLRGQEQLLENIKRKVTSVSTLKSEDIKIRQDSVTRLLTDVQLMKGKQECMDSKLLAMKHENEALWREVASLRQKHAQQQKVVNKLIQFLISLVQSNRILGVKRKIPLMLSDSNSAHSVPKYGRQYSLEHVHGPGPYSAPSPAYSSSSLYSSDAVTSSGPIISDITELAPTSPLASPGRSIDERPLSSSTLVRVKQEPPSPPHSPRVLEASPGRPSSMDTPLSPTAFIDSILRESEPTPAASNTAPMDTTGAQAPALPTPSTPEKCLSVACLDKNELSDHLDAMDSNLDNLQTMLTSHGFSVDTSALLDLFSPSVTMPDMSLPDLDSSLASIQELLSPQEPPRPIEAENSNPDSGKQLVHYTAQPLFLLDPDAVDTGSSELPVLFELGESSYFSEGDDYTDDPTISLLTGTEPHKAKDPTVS

[3] = molecular target: T2, Corticotropin-releasing factor receptor 2/Corticotropin-releasing factor-binding protein (Homo sapiens, UniProt P24387+Q13324); assay: Dose Response confirmation of uHTS hits for small molecule antagonists of the CRF-binding protein and CRF-R2 receptor complex.; conditions: read-out: IC50_Mean
T2 sequence (Q13324 whole entry): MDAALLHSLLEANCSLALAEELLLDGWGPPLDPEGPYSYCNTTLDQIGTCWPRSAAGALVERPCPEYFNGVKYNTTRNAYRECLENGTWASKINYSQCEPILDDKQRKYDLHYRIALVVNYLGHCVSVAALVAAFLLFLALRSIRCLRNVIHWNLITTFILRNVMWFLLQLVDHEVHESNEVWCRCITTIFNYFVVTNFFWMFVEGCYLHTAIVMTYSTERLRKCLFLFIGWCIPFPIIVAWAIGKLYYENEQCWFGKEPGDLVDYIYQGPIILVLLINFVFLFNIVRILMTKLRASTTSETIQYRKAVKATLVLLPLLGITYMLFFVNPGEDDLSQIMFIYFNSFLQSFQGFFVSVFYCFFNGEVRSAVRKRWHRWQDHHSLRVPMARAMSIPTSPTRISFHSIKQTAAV
T2 sequence (P24387 whole entry): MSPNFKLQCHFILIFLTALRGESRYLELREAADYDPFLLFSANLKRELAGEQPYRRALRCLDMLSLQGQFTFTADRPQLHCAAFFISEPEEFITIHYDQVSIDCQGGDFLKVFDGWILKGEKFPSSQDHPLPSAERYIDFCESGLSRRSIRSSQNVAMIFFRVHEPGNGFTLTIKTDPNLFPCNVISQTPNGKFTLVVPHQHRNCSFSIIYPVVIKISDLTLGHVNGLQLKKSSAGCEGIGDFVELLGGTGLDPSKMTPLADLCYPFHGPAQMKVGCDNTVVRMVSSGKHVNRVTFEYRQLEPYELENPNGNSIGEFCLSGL

[4] = molecular target: T2, Corticotropin-releasing factor receptor 2/Corticotropin-releasing factor-binding protein; assay: activators of CRF receptor 2 with binding protein – uHTS hits, confirmation (AID 602473); conditions: read-out: EC50_Mean

| SMILES | EC50 [2] | other results |
| --- | --- | --- |
| O=S(=O)(NC1c2cccc3cccc(c23)C1N1CCNCC1)c1ccc(Cl)cc1 (stereo unspecified) | > 260 µM (inactive) |  |
| Cc1nonc1C1CCCN1Cc1c[nH]nc1-c1ccc(-c2ccccc2)cc1 (stereo unspecified) | 35.2 µM (active) | CC50 [1]: 21.4 µM (active) |
| CCc1nc(N2CCN(S(=O)(=O)c3ccc(Br)cc3)CC2)c2c(C)c(C)sc2n1 | > 260 µM (inactive) |  |
| CN(c1cccc(NC(=O)CN(c2cccc(Cl)c2)S(=O)(=O)c2ccc(Cl)cc2)c1)S(C)(=O)=O | > 260 µM (inactive) |  |
| Cc1ccc(O)c(CNc2nccs2)c1 | 20.5 µM (active) |  |
| O=C(CSc1nnc(C2COc3ccccc3O2)o1)NC1CCCCC1 (stereo unspecified) |  | IC50 [3]: > 47.1 µM (inactive); EC50 [4]: > 53 µM (inactive) |
| C=CCn1c(SCC(=O)Nc2cc(NC(C)=O)ccc2OC)nnc1-c1cccnc1 | > 260 µM (inactive) |  |
| CCc1ccccc1N1C(=O)C2CC(C)=C(C)CC2C1=O (stereo unspecified) |  | IC50 [3]: > 47.1 µM (inactive); EC50 [4]: > 53 µM (inactive) |

Continued, in another order:

| EC50 [2] | SMILES | other results |
| --- | --- | --- |
| 14.2 µM (active) | CC(C)c1ccc(/C=C/C(=O)n2nnc3ccccc32)cc1 | CC50 [1]: 25.1 µM (active) |
| > 260 µM (inactive) | COc1ccc(CNC(=O)CCC(=O)N2CC(C)Oc3ccccc32)cc1 (stereo unspecified) |  |
| > 260 µM (inactive) | COc1ccc(C(C(=O)NCC2CCCO2)N(C(=O)Cn2nnc3ccccc32)c2ccc(NC(C)=O)cc2)cc1OC (stereo unspecified) |  |
| 36.9 µM (active) | CCOC(=O)Cn1nnnc1C(C(C)C)N(Cc1cc2c(C)cc(C)cc2[nH]c1=O)C1CCCC1 (stereo unspecified) |  |
